Each structure is given as a SMILES string.

This experiment has as its target T1, Sentrin-specific protease 1 (Homo sapiens, UniProt Q9P0U3).
T1 sequence (Q9P0U3 whole entry): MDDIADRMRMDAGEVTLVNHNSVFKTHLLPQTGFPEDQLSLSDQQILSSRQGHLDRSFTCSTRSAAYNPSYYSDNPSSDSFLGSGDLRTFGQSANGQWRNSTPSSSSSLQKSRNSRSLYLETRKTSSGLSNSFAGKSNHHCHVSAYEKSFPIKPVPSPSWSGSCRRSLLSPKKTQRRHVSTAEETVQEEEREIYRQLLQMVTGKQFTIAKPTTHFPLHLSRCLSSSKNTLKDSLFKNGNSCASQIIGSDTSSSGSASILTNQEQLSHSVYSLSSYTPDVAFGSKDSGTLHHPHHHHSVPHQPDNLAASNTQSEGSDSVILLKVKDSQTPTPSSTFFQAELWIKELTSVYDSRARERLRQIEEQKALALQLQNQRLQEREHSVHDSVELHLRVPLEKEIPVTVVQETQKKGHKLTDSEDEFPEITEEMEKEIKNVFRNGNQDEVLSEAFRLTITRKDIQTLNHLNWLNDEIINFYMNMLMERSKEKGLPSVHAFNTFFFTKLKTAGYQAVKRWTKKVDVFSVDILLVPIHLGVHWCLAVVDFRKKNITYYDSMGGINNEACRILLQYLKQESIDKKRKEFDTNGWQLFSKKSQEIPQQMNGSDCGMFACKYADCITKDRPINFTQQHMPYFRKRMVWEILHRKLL
A word on the IC50: it is the midpoint of a concentration-inhibition curve. In turn, `CCOC1=CC(=Cc2sc(=O)[nH]c2N)C=CC1=O` gave an IC50 of 10.9 µM. As to `O=[N+]([O-])c1ccc(C/N=N/c2ccccc2)cc1`, it took 21.5 µM to reach half-maximal inhibition (IC50). As to `COc1ccc(OC)c(CCNC(=O)c2ccc3c(=O)[nH]c4c(C(=O)NC(C)C)sc(=S)n4c3c2)c1`, the IC50 was above 80 µM. `COc1ccc(-n2c(O)c3c(c2O)C(C(=O)c2ccc(Cl)cc2)N2CCCC32)cc1` (stereo unspecified) gave an IC50 of 5.56 µM.

Turning to `O=C1CC(=Nc2ccc(Cl)cc2)C(=O)N1c1ccc(Cl)cc1` [1-(4-chlorophenyl)-3-[(4-chlorophenyl)amino]pyrrole-2,5-dione], the IC50 is 21 µM. This IC50 is about 3.8-fold higher than that of the compound before.

As to `CC1(C)CC(=O)C2Sc3ccccc3N=C2C1` (stereo unspecified) [2,2-Dimethyl-2,3-dihydro-1H,10H-phenothiazin-4-one], the IC50 came out at 29 µM. This IC50 and that of the compound before are within 1.5-fold of each other.

Compound `O=C(Cc1cccc2ccccc12)NC(NC(=S)Nc1ccccc1Cl)C(Cl)(Cl)Cl` (stereo unspecified) [2-(1-naphthyl)-N-[2,2,2-trichloro-1-({[(2-chlorophenyl)amino]carbonothioyl}amino)ethyl]acetamide] returned an IC50 of 8.36 µM. Then `N#CC1C(=N)Oc2cc(Nc3ccccc3)ccc2C1c1ccncc1` (stereo unspecified) [2-amino-7-anilino-4-pyridin-4-yl-4H-1-benzopyran-3-carbonitrile], with 41.9 µM. On to `CCN1C(=O)c2cccc3c(NC(=O)c4cccc(-n5c(O)ccc5O)c4)ccc1c23` [3-(2,5-dioxopyrrolidin-1-yl)-N-(1-ethyl-2-oxobenzo[cd]indol-6-yl)benzamide], for which half-maximal inhibition (IC50) required 17.9 µM.

Turning to `COc1ccc(C=Nn2c(O)csc2=S)cc1Br` [3-[(E)-(3-bromo-4-methoxyphenyl)methylideneamino]-2-sulfanylidene-4-thiazolidinone], the IC50 worked out at 19.3 µM. Consider `O=C1CC(=O)c2cccc3cccc1c23` [3-hydroxy-1H-phenalen-1-one], for which the IC50 came to 13.1 µM. This IC50 and that of the compound before are within 1.5-fold of each other. In the case of `Oc1c2c(c(O)n1-c1ccccn1)C(c1ccccc1)C=CC2c1ccccc1` (stereo unspecified) [4,7-diphenyl-2-pyridin-2-yl-3a,4,7,7a-tetrahydroisoindole-1,3-dione] it was 10.8 µM; in that of `COc1nccnc1NS(=O)(=O)c1ccc(NC(=S)NC(=O)c2ccc(F)cc2)cc1` [4-[3-(4-Fluoro-benzoyl)-thioureido]-N-(3-methoxy-pyrazin-2-yl)-benzenesulfonamide], 11.6 µM; in that of `O=C(O)c1ccc(N=NCc2cccc3nccnc23)cc1` [4-[(2E)-2-(5-quinoxalinylmethylidene)hydrazinyl]benzoic acid], 15.1 µM. As for `O=C1NC(=S)N/C1=C/c1cccc([N+](=O)[O-])c1O` [(5E)-5-[(2-hydroxy-3-nitrophenyl)methylidene]-2-sulfanylideneimidazolidin-4-one], the IC50 is above 80 µM.

With `CCOC(=O)/C(C#N)=C/C=C1\C=Cc2ccccc2N1CC` [(E,4E)-2-cyano-4-(1-ethyl-2-quinolinylidene)-2-butenoic acid ethyl ester], the concentration for half-maximal inhibition (IC50) was above 80 µM. As to `CC(=O)Oc1ccc(-n2c(O)c3c(c2O)C(C(=O)c2ccc(Cl)cc2)N2CCCC32)cc1` (stereo unspecified) [Acetic acid 4-[4-(4-chloro-benzoyl)-1,3-dioxo-octahydro-pyrrolo[3,4-a]pyrrolizin-2-yl]-phenyl ester], inhibition was half-maximal at 7.5 µM (IC50). Compound `O=C1CCCC2=Nc3cc(Cl)ccc3SC12` (stereo unspecified) [MLS000333002] displayed a half-inhibitory concentration (IC50) of 13.7 µM. `CN(C)c1ccc(C=NNC(=O)C(=O)CC2=NC3(CCCC3)Cc3ccccc32)cc1` [MLS000589038] showed an IC50 of 10.1 µM.

`COc1ccc(-n2c(O)c3c(c2O)C(C(=O)c2ccccc2)N2CCCC32)cc1` (stereo unspecified) [MLS000762485] registered an IC50 of 31 µM. Then `CCOc1cc(C=c2[nH]c3n(c2=O)CCCCC=3)ccc1O` [MLS000774439], with 9.57 µM; and `CC1=C(C#N)C(=O)NC(=O)C1=NNc1ccc(Br)cc1C(=O)O` [MLS001213177], with 18.1 µM. In turn, `O=NC1c2cc([N+](=O)[O-])ccc2-c2cc(Cl)c(NC(=O)C(F)(F)F)cc21` (stereo unspecified) [MLS002707326] had a half-maximal inhibitory concentration (IC50) of 12.5 µM.

Compound `Nc1ccc2c(c1)C(N=O)c1cc([N+](=O)[O-])ccc1-2` (stereo unspecified) [N-(2-azanyl-7-nitro-fluoren-9-ylidene)hydroxylamine] returned an IC50 of 18.1 µM. This IC50 and that of the compound before are within 1.5-fold of each other. The compound `Nc1cc([N+](=O)[O-])ccc1Nc1ccccc1` [SMR000271721] displayed an IC50 above 80 µM. As for `CCN(CC)CCNc1cccc2sc3ccccc3c(=O)c12` [SMR001821489], the IC50 was above 80 µM.

(Values after BindingDB's records for doi:10.7270/Q2MC8XNQ (Burnham Center For Chemical Genomics, 2012).)
